How the values were obtained:
[1] = target: T1, Human μ-opioid (MOP) (Homo sapiens, UniProt P35372); assay: Radioligand binding, human μ-opioid (MOP) membranes, FlashPlate, [3H]-Naloxone; conditions: compound at 10 μM, [3H]-Naloxone
T1 construct: purchased Perkin Elmer Biosignal
Procedure, shortened: (§1)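 Cloned human receptor membranes were coated onto FlashPlate wells and incubated with radioligand and compound (added from a 0.5 mM DMSO daughter plate) for 1 hour at room temperature in the dark. Scintillation counting gave percent inhibition, with DMSO defining total and reference ligand defining non-specific binding.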

[2] = target: T2, Human δ-opioid (DOP) (Homo sapiens, UniProt P41143); assay: Radioligand binding, human δ-opioid (DOP) membranes, FlashPlate, [3H]-Bremazocine; conditions: compound at 10 μM; [3H]-Bremazocine
T2 construct: purchased Perkin Elmer Biosignal
T2 sequence (P41143 whole entry): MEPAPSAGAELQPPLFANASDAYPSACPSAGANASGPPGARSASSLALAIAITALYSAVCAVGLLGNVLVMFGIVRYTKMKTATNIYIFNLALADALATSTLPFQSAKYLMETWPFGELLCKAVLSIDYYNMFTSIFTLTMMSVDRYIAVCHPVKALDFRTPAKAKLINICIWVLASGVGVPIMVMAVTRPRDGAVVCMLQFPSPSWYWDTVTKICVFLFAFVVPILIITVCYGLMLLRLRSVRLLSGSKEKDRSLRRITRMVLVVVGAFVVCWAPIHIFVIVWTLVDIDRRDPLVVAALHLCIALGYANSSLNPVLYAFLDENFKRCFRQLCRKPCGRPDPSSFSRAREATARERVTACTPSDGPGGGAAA
Procedure, shortened: as §1

[3] = target: T3, Mouse urotensin (mUR2) (Mus musculus, UniProt Q8VIH9); assay: Radioligand binding, mouse urotensin mUR2 membranes, FlashPlate, [125I]-Urotensin II; conditions: compound at 10 μM; [125I]-Urotensin II
T3 construct: purchased Perkin Elmer Biosignal
T3 sequence (Q8VIH9 1-385): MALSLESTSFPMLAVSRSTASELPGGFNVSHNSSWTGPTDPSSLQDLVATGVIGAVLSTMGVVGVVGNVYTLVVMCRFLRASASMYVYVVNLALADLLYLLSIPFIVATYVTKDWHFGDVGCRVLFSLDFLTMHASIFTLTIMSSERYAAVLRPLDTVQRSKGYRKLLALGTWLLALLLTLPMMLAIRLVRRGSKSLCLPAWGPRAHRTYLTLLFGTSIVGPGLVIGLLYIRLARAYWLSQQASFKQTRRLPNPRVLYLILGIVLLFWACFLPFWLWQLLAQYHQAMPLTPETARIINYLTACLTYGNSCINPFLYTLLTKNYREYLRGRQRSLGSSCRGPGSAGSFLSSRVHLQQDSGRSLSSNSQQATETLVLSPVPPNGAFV
Procedure, shortened: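 Cloned mouse urotensin (mUR2) receptor membranes from Perkin Elmer Biosignal were immobilized in FlashPlate microplates using a proprietary coating. Each well got 19.5 μl buffer, then 0.5 μl of DMSO, reference ligand, or compound. Adding 5 μl of [125I]-Urotensin II, diluted to 5× final concentration in binding buffer, started binding. Plates were sealed with TopSeal-A and incubated 1 hour at room temperature in the dark. Wells were counted for 30 seconds each on a TopCount after a 60-second delay, and percentage inhibition was calculated.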

[4] = target: T4, Human opioid (ORL1) (Homo sapiens, UniProt P41146); assay: Radioligand binding, human opioid ORL1 membranes, FlashPlate, [125I]-Nociceptin; conditions: compound at 10 μM; [125I]-Nociceptin
T4 construct: purchased Perkin Elmer Biosignal
T4 sequence (P41146 whole entry): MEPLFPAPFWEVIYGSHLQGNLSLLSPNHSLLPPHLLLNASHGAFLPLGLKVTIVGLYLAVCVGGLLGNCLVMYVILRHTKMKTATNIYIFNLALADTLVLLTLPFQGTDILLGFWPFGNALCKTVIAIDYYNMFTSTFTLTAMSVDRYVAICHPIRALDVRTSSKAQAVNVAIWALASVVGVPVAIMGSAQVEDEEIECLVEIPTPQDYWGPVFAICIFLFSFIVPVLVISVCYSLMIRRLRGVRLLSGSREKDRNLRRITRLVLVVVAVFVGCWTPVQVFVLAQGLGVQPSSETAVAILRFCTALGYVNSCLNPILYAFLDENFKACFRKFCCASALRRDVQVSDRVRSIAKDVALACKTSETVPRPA
Procedure, shortened: as §1

[5] = target: T5, Human melanocortin (MC5) (Homo sapiens, UniProt P33032); assay: Radioligand binding, human melanocortin MC5 membranes, FlashPlate, [125I]-NDP-αMSH; conditions: compound at 10 μM, [125I]-NDP-αMSH
T5 construct: purchased Perkin Elmer Biosignal
T5 sequence (P33032 whole entry): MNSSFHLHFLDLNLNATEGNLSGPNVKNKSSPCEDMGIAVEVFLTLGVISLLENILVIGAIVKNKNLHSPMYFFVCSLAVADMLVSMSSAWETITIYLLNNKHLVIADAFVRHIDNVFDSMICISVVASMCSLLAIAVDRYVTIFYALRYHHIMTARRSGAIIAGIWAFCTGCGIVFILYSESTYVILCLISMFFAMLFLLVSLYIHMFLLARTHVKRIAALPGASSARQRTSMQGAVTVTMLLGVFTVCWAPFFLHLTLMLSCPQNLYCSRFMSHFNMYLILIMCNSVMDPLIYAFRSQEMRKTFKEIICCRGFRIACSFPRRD
Procedure, shortened: as §1

[6] = target: T6, Human Melanocortin (MC4) (Homo sapiens, UniProt P32245); assay: Radioligand binding, human melanocortin MC4 membranes, FlashPlate, [125I]-NDP-αMSH; conditions: compound at 10 μM, [125I]-NDP-αMSH
T6 construct: purchased Perkin Elmer Biosignal
T6 sequence (P32245 whole entry): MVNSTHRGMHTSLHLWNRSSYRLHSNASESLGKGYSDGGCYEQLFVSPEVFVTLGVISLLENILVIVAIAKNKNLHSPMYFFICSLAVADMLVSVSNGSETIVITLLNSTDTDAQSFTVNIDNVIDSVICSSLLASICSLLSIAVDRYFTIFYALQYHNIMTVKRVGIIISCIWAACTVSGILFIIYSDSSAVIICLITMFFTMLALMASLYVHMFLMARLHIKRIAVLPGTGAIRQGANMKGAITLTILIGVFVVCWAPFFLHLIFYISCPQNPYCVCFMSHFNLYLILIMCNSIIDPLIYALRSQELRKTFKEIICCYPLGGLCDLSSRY
Procedure, shortened: as §1

[7] = target: T7, Human κ-Opioid (KOP) (Homo sapiens, UniProt P41145); assay: Radioligand binding, human κ-opioid (KOP) membranes, filtration, [3H]-Diprenorphine; conditions: compound at 10 μM; [3H]-Diprenorphine
T7 construct: purchased Perkin Elmer Biosignal
T7 sequence (P41145 whole entry): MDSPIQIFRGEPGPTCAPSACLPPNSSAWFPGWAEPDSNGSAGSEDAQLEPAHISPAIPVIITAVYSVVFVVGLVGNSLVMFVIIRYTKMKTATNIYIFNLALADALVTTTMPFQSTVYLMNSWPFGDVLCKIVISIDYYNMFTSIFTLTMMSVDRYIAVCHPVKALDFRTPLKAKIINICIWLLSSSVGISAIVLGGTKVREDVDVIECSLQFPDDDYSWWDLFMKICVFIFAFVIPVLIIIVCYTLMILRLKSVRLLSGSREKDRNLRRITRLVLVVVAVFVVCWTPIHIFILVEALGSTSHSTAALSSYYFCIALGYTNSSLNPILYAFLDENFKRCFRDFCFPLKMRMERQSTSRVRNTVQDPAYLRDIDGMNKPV
Procedure, shortened: (§2)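 Percent inhibition of radioligand binding measured on recombinant human membranes: NK1 with [125I]-Substance P, KOP with [3H]-Diprenorphine. Incubation 1 h at room temperature, then harvest onto 0.3% PEI-soaked filters, cold Tris-HCl pH 7.4 washes and scintillation counting; non-specific binding from reference ligand wells.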

[8] = target: T8, Human melanin-concentrating hormone (MCH1) (Homo sapiens, UniProt Q99705); assay: Radioligand binding, human melanin-concentrating hormone MCH1 membranes, FlashPlate, [125I]-S36057; conditions: compound at 10 μM, [125I]-S36057
T8 construct: purchased Perkin Elmer Biosignal
T8 sequence (Q99705 whole entry): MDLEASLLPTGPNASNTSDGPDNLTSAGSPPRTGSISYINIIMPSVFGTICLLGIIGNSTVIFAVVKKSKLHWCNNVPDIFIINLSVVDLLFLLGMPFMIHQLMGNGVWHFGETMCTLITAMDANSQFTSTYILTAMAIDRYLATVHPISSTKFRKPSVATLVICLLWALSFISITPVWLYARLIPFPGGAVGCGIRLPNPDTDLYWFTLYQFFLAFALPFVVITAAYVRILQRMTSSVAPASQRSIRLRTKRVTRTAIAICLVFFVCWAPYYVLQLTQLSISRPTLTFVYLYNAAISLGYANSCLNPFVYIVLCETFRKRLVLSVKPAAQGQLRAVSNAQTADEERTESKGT
Procedure, shortened: as §1

[9] = target: T9, Human Melanocortin (MC3) (Homo sapiens, UniProt P41968); assay: Radioligand binding, human melanocortin MC3 membranes, FlashPlate, [125I]-NDP-αMSH; conditions: compound at 10 μM; [125I]-NDP-αMSH
T9 construct: purchased Perkin Elmer Biosignal
T9 sequence (P41968 whole entry): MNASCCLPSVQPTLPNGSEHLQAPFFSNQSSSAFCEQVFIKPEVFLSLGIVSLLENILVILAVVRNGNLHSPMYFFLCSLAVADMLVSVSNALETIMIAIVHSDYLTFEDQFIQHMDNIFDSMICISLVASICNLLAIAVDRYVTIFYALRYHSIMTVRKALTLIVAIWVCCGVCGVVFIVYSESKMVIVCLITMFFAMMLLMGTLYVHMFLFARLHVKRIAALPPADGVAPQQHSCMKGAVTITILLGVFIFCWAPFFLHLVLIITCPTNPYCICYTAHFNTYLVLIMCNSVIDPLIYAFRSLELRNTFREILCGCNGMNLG
Procedure, shortened: as §1

[10] = target: T10, Human neuropeptide Y (NPY-Y1) (Homo sapiens, UniProt P25929); assay: Radioligand binding, human neuropeptide Y NPY-Y1 membranes, FlashPlate, [125I]-PYY; conditions: compound at 10 μM; [125I]-PYY
T10 construct: purchased Perkin Elmer Biosignal
T10 sequence (P25929 1-384): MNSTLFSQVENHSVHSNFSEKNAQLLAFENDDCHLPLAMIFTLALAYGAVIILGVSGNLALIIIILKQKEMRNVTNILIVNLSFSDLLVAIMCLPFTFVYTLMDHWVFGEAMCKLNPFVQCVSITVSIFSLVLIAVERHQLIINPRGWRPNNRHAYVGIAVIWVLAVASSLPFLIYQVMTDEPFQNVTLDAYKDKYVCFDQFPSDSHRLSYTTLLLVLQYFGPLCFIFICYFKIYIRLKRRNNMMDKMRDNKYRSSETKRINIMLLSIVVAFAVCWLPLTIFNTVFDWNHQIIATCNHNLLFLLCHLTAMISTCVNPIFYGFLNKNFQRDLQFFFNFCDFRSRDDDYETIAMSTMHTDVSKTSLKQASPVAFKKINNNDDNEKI
Procedure, shortened: as §1

[11] = target: T11, Human neurokinin (NK1) (Homo sapiens, UniProt P25103); assay: Radioligand binding, human neurokinin NK1 membranes, filtration, [125I]-Substance P; conditions: compound at 10 μM; [125I]-Substance P
T11 construct: purchased Perkin Elmer Biosignal
T11 sequence (P25103 whole entry): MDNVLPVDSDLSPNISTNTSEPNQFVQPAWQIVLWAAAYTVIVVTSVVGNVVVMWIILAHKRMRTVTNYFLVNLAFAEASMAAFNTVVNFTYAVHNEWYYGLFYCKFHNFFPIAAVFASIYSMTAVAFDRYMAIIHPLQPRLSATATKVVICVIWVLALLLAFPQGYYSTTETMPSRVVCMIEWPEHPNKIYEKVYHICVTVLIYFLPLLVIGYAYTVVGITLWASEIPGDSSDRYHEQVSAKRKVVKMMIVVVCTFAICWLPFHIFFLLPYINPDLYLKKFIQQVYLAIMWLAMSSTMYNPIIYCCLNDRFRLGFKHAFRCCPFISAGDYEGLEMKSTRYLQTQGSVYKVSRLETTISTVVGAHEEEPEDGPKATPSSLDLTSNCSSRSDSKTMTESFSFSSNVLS
Procedure, shortened: as §2

T1 sequence (P35372 whole entry): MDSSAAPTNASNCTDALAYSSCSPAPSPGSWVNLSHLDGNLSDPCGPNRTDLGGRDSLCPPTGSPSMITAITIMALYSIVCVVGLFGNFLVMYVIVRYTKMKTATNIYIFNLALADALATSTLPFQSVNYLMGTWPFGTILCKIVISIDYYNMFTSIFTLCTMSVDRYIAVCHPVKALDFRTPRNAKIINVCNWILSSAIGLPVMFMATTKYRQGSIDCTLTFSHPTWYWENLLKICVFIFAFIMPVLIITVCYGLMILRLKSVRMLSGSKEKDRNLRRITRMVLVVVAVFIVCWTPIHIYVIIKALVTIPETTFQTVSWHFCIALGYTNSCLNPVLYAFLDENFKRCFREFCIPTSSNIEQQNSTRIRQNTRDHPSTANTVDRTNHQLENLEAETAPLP

Structure (SMILES)	A7: inhibition of radioligand binding, human μ-opioid (MOP) [1]	A1: inhibition of radioligand binding, human δ-opioid (DOP) [2]	A11: inhibition of radioligand binding, mouse urotensin (mUR2) [3]	A10: inhibition of radioligand binding, human opioid (ORL1) [4]	A5: inhibition of radioligand binding, human melanocortin (MC5) [5]	A4: inhibition of radioligand binding, human melanocortin (MC4) [6]	A2: inhibition of radioligand binding, human κ-opioid (KOP) [7]	A6: inhibition of radioligand binding, human melanin-concentrating hormone (MCH1) [8]	A3: inhibition of radioligand binding, human melanocortin (MC3) [9]	A9: inhibition of radioligand binding, human neuropeptide Y (NPY-Y1) [10]	A8: inhibition of radioligand binding, human neurokinin (NK1) [11]	A7: inhibition of radioligand binding, human μ-opioid (MOP) ([1]; 10 µM)	A5: inhibition of radioligand binding, human melanocortin (MC5) ([5]; 10 µM)	A4: inhibition of radioligand binding, human melanocortin (MC4) ([6]; 10 µM)	A6: inhibition of radioligand binding, human melanin-concentrating hormone (MCH1) ([8]; 10 µM)
CSC1OC(COCc2ccc3ccccc3c2)C(O)C(OCc2ccc3ccccc3c2)C1NC(=O)CCNC(=N)N (stereo not shown) [compound 319]	− (“−” indicates less than 50% inhibition at 10 μM)	− (“−” indicates less than 50% inhibition at 10 μM)	− (“−” indicates less than 50% inhibition at 10 μM)	− (“−” indicates less than 50% inhibition at 10 μM)	+ (“+” indicates greater than 50% inhibition at 10 μM)	+ (“+” indicates greater than 50% inhibition at 10 μM)	− (“−” indicates less than 50% inhibition at 10 μM)	− (“−” indicates less than 50% inhibition at 10 μM)	− (“−” indicates less than 50% inhibition at 10 μM)	− (“−” indicates less than 50% inhibition at 10 μM)	+ (“+” indicates greater than 50% inhibition at 10 μM)				
NCCC(=O)NC1C(OCc2ccc(Cl)cc2)OC(COCc2ccccc2)C(O)C1OCc1ccc2ccccc2c1 (single isomer, unassigned) [compound 480]		− (“−” indicates less than 50% inhibition at 10 μM)	− (“−” indicates less than 50% inhibition at 10 μM)	− (“−” indicates less than 50% inhibition at 10 μM)			− (“−” indicates less than 50% inhibition at 10 μM)		− (“−” indicates less than 50% inhibition at 10 μM)	− (“−” indicates less than 50% inhibition at 10 μM)	+ (“+” indicates greater than 50% inhibition at 10 μM)	+ (“+” indicates greater than 50% inhibition at 10 μM)	+ (“+” indicates greater than 50% inhibition at 10 μM)	+ (“+” indicates greater than 50% inhibition at 10 μM)	+ (“+” indicates greater than 50% inhibition at 10 μM)

— patent US20080009418A1, “Selective Inhibitors” (Alchemia LTD., priority 2004, published 2008)
